{"source": "patent US4427698A", "about": "“Use of N,N-dimethyl-N'-p-tolyl-N'-dichlorofluoromethylthio-sulphamide for combating fungi which damage wood” (Bayer Aktiengesellschaft, priority 1978, dated 1984)", "key": {"[1]": {"tested_on": "Ceratocystis coerulenceus", "assay": "MIC determination in agar (beer wort and peptone)", "type": "cell-based", "procedure": "(§1) Determination of the minimum inhibitory concentration (MIC)\n(§2) The active compound according to the invention is added, in concentrations of 2 mg/l to 5,000 mg/l, to an agar which is prepared from beer wort and peptone. After storing for 2 weeks at 28° C. and 60-70% relative atmospheric humidity the MIC is determined."}, "Ceratocystis pini": {"tested_on": "Ceratocystis pini", "assay": "MIC determination in agar (beer wort and peptone)", "type": "cell-based", "procedure": "as §1, §2"}, "Chaetomium globosum": {"tested_on": "Chaetomium globosum", "assay": "MIC determination in agar (beer wort and peptone)", "type": "cell-based", "procedure": "as §1, §2"}, "Coniophora cerebella": {"tested_on": "Coniophora cerebella", "assay": "MIC determination in agar (beer wort and peptone)", "type": "cell-based", "procedure": "as §1, §2"}, "Lentinus tigrinus": {"tested_on": "Lentinus tigrinus", "assay": "MIC determination in agar (beer wort and peptone)", "type": "cell-based", "procedure": "as §1, §2"}, "Poria Vaporaria": {"tested_on": "Poria Vaporaria", "assay": "MIC determination in agar (beer wort and peptone)", "type": "cell-based", "procedure": "as §1, §2"}, "Ceratocystis piceae": {"tested_on": "Ceratocystis piceae", "assay": "activity against wood-damaging fungi", "type": "cell-based"}, "Coriolus versicolor": {"tested_on": "Coriolus versicolor", "assay": "activity against wood-damaging fungi", "type": "cell-based"}, "[2]": {"assay": "Solubilities in % by weight", "type": "physicochemical", "excerpt": "Solubilities in % by weight of N,N-dimethyl-N'-p-tolyl-N'-dichlorofluoromethylthio-sulphamide (A) compared with N,N-dimethyl-N'-phenyl-N'-dichlorofluoromethylthio-sulphamide (B) and N-dichlorofluoromethylthio-phthalimide (C)."}, "[3]": {"assay": "Peroral toxicity, single administration by probang to male rats", "settings": "rat, in vivo, po, dissolved in acetone, Probit analysis, read-out: LD50 perorally", "procedure": "The LD50 was calculated by means of Probit analysis (Fink et al, Methods of information in medicin 5, 19, 1966)."}, "[4]": {"assay": "Cutaneous treatment of male rats", "type": "in vivo, rat", "settings": "rat, in vivo, topical or ocular, read-out: LD50 cutaneously"}, "male rats [5]": {"tested_on": "male rats", "assay": "Cutaneous treatment of male rats", "type": "in vivo, rat", "settings": "cutaneous treatment"}, "[6]": {"assay": "cumulative and percutaneous toxic action", "type": "in vivo", "settings": "in contrast to known active compounds, for example pentachlorophenol"}, "rats": {"tested_on": "rats", "settings": "Caines, Toxycology and Applied Pharmacology 14, 515 (1969); cited from earlier work"}, "male rats [7]": {"tested_on": "male rats", "settings": "comparison substance pentachlorophenol; cited from earlier work"}, "[8]": {"settings": "336 h, 2 weeks at 28° C., 60-70% relative humidity"}, "[9]": {"settings": "Benzine fraction, boiling point 140-190° C."}, "[10]": {"settings": "Mixture of aromatic hydrocarbons, boiling point 159-175° C."}}}
{"compound": "Cc1ccc(N(SC(F)(Cl)Cl)S(=O)(=O)N(C)C)cc1", "note": "[A, N,N-dimethyl-N'-p-tolyl-N'-dichlorofluoromethylthio-sulphamide]", "values": [{"measurement": "active against wood-damaging fungi", "setting": "[1]", "result": "active"}, {"measurement": "MIC", "setting": "[1]; [8]", "result": 20, "unit": "µg/mL"}, {"measurement": "active against wood-damaging fungi", "setting": "Ceratocystis pini", "result": "active"}, {"measurement": "MIC", "setting": "Ceratocystis pini; [8]", "result": 20, "unit": "µg/mL"}, {"measurement": "active against wood-damaging fungi", "setting": "Chaetomium globosum", "result": "active"}, {"measurement": "MIC", "setting": "Chaetomium globosum; [8]", "result": 10, "unit": "µg/mL"}, {"measurement": "active against wood-damaging fungi", "setting": "Coniophora cerebella", "result": "active"}, {"measurement": "MIC", "setting": "Coniophora cerebella; [8]", "result": 10, "unit": "µg/mL"}, {"measurement": "active against wood-damaging fungi", "setting": "Lentinus tigrinus", "result": "active"}, {"measurement": "MIC", "setting": "Lentinus tigrinus; [8]", "result": 5, "unit": "µg/mL"}, {"measurement": "MIC", "setting": "Poria Vaporaria; 336 h, Poria Vaporaria, 2 weeks at 28° C., 60-70% relative humidity", "result": 2, "unit": "µg/mL"}, {"measurement": "active against wood-damaging fungi", "setting": "Poria Vaporaria; Poria vaporaria", "result": "active"}, {"measurement": "active against wood-damaging fungi", "setting": "Ceratocystis piceae", "result": "active"}, {"measurement": "active against wood-damaging fungi", "setting": "Coriolus versicolor", "result": "active"}, {"measurement": "Solubility", "setting": "[2]; [9]", "result": 2.5, "unit": "% by weight"}, {"measurement": "Solubility", "setting": "[2]; Ethyl acetate", "result": 33, "unit": "% by weight"}, {"measurement": "Solubility", "setting": "[2]; Methanol", "result": 5, "unit": "% by weight"}, {"measurement": "Solubility", "setting": "[2]; [10]", "result": 20, "unit": "% by weight"}, {"measurement": "Solubility", "setting": "[2]; Xylene", "result": 29, "unit": "% by weight"}, {"measurement": "solubility (in words)", "setting": "[2]; organic solvents", "result": "very readily soluble"}, {"measurement": "LD50", "setting": "[3]", "result": "> 2500", "unit": "mg/kg"}, {"measurement": "LD50", "setting": "[4]", "result": "> 500", "unit": "mg/kg"}, {"measurement": "percutaneous toxicity compared with the other sulphamide (in words)", "setting": "male rats [5]", "result": "just as low a toxicity"}, {"measurement": "cumulative or percutaneous toxic action (in words)", "setting": "[6]", "result": "neither a cumulative nor a percutaneous toxic action"}]}
{"compound": "CN(C)S(=O)(=O)N(SC(F)(Cl)Cl)c1ccccc1", "note": "[B, N,N-dimethyl-N'-phenyl-N'-dichlorofluoromethylthio-sulphamide]", "values": [{"measurement": "Solubility", "setting": "[2]; [9]", "result": 1.2, "unit": "% by weight"}, {"measurement": "Solubility", "setting": "[2]; Ethyl acetate", "result": 11, "unit": "% by weight"}, {"measurement": "Solubility", "setting": "[2]; Methanol", "result": 1.5, "unit": "% by weight"}, {"measurement": "Solubility", "setting": "[2]; [10]", "result": 7.5, "unit": "% by weight"}, {"measurement": "Solubility", "setting": "[2]; Xylene", "result": 6.5, "unit": "% by weight"}, {"measurement": "solubility (in words)", "setting": "[2]; formulating agents customary for wood protection agents", "result": "very poor solubility"}]}
{"compound": "Oc1c(Cl)c(Cl)c(Cl)c(Cl)c1Cl", "note": "[Pentachlorophenol]", "values": [{"measurement": "LD50 perorally", "setting": "rats", "result": "160 mg/kg of body weight"}, {"measurement": "LD50 cutaneously", "setting": "male rats [7]", "result": 325, "unit": "mg/kg"}, {"measurement": "percutaneous toxic action (in words)", "setting": "male rats [7]", "result": "has a toxic action"}]}
